≈ marks a conversion by molar mass, not a printed value.
Legend:
[1] = tested on: C. albicans E81022 strain; experiment: Anti-Candida activity, MIC measurement (broth dilution, visual inspection); type: cell-based; settings: C. albicans E81022, RPMI1640, 48 hours at 35° C.; for MIC: Candida albicans, E81022STRAIN, read-out: Anti-Candida activity (minimum growth inhibitory concentration, MIC)
Procedure: (§1) For the C. albicans E81022 strain, a fungal suspension from a standing culture 48 hours at 30° C. in a Sabouraud dextrose liquid culture medium (SDB) was diluted 10000-fold with 1.3-times concentrated RPMI1640 medium to prepare a fungal suspension containing 1 to 2×10^4 cells/ml. For the A. fumigatus Tsukuba strain, −80° C. stored strain was diluted 1000-fold with 1.3-times concentrated RPMI1640 medium to prepare a fungal suspension containing 2 to 3×10^3 cells/ml.
(§2) Using a U-shaped bottomed 96-well plates, 8 samples/plate (A to H) of sample dilution solutions were prepared. On the first row was dispensed 240 μl of sterile distilled water, and on the 2nd to 12th row were dispersed 125 μL of 4% dimethylsulfoxide solution. Weighed sample was dissolved in dimethylsulfoxide to prepare a 5 mg/ml solution followed by adding 10 μL of the solutions to the first row of the prepared plates and preparing 12-step serial 2-fold dilutions (125 μL of solution+125 μL of 4% dimethylsulfoxide solution) on the plates.
(§3) The fungal suspension prepared in (1) was used in the amount of 75 μL/well to inoculate the flat-bottomed 96-well plates containing 25 μL/well of the test compound prepared in (2), and a standing culture was carried out aerobically for 48 hours at 35° C.

[2] = tested on: A. fumigatus Tsukuba strain; experiment: Anti-Aspergillus activity, MIC measurement (broth dilution, visual inspection); type: cell-based; settings: RPMI1640, 48 hours at 35° C., read-out: Anti-Aspergillus activity (minimum growth inhibitory concentration, MIC)
Procedure: as §1, §2, §3

Row | Compound | Anti-Candida activity (minimum growth inhibitory concentration, MIC) [1] | MIC [1] | MIC [2]
1 | 2,6-Diamino-N-(6-(2-phenoxy-ethoxy)-benzofuran-2-ylmethyl)-nicotinamide [Example 80] | 3.13 µg/mL |  | 
2 | CCCCc1ccc2oc(CNC(=O)c3ccc(COC)nc3N)cc2c1 [Example 57, 2-Amino-N-(5-butyl-benzofuran-2-ylmethyl)-6-methoxymethyl-nicotinamide] |  | 6.25 µg/mL (≈ 17 µM) | 1.56 µg/mL (≈ 4.25 µM)
3 | COCc1ccc(C(=O)NCc2cc3ccc(OCc4ccccc4)cc3s2)c(N)n1 [Example 77, 2-Amino-N-(6-benzyloxy-benzo[b]thiophen-2-ylmethyl)-6-methoxymethyl-nicotinamide] |  | 0.39 µg/mL (≈ 0.9 µM) | 3.13 µg/mL (≈ 7.22 µM)
4 | CC(C)(C)COc1ccc2cc(CNC(=O)c3ccc(N)nc3N)oc2c1 [Example 16, 2,6-Diamino-N-(6-(2,2-dimethyl-propoxy)-benzofuran-2-ylmethyl)-nicotinamide] |  | 3.13 µg/mL (≈ 8.5 µM) | 6.25 µg/mL (≈ 17 µM)
5 | CC=CCOc1ccc2cc(CNC(=O)c3cccnc3N)oc2c1 [Example 69, 2-Amino-N-(6-but-2-enyloxy-benzofuran-2-ylmethyl)-nicotinamide] |  | 0.39 µg/mL (≈ 1.16 µM) | 0.39 µg/mL (≈ 1.16 µM)
6 | CCOc1ccc2cc(CNC(=O)c3cccnc3N)oc2c1 [Example 59, 2-Amino-N-(6-ethoxy-benzofuran-2-ylmethyl)-nicotinamide] |  | 0.78 µg/mL (≈ 2.51 µM) | 3.13 µg/mL (≈ 10.1 µM)
7 | COCc1ccc(C(=O)NCc2cc3cc(Br)ccc3o2)c(N)n1 [Example 79, 2-Amino-N-(5-bromo-benzofuran-2-ylmethyl)-6-methoxymethyl-nicotinamide] |  |  | 12.5 µg/mL (≈ 32 µM)
8 | CCOCCOc1ccc2cc(CNC(=O)c3ccc(COC)nc3N)oc2c1 [Example 41, 2-Amino-N-(6-(2-ethoxy-ethoxy)-benzofuran-2-ylmethyl)-6-methoxymethyl-nicotinamide] |  | 3.13 µg/mL (≈ 7.84 µM) | 
9 | COCc1ccc(C(=O)NCc2cc3ccc(Oc4ccccc4)cc3o2)c(N)n1 [Example 49, 2-Amino-6-methoxymethyl-N-(6-phenoxy-benzofuran-2-ylmethyl)-nicotinamide] |  | 0.39 µg/mL (≈ 0.967 µM) | 6.25 µg/mL (≈ 15.5 µM)
10 | Nc1ccc(C(=O)NCc2cc3ccc(OCc4ccccc4F)cc3o2)c(N)n1 [Example 23, 2,6-Diamino-N-(6-(2-fluoro-benzyloxy)-benzofuran-2-ylmethyl)-nicotinamide] | 1.56 µg/mL |  | 
11 | CCCCCOc1ccc2cc(CNC(=O)c3ccc(N)nc3N)oc2c1 [Example 12, 2,6-Diamino-N-(6-pentyloxy-benzofuran-2-ylmethyl)-nicotinamide] |  | 0.78 µg/mL (≈ 2.12 µM) | 1.56 µg/mL (≈ 4.23 µM)
12 | CC(C)CCOc1ccc2cc(CNC(=O)c3ccc(N)nc3N)oc2c1 [Example 14, 2,6-Diamino-N-(6-(3-methyl-butoxy)-benzofuran-2-ylmethyl)-nicotinamide] |  | 1.56 µg/mL (≈ 4.23 µM) | 
13 | CC=CCOc1ccc2cc(CNC(=O)c3ccc(COC)nc3N)oc2c1 [Example 38, 2-Amino-N-(6-but-2-enyloxy-benzofuran-2-ylmethyl)-6-methoxymethyl-nicotinamide] |  | 0.39 µg/mL (≈ 1.02 µM) | 0.78 µg/mL (≈ 2.04 µM)
14 | COCc1ccc(C(=O)NCc2cc3ccc(OCC4CCCCO4)cc3o2)c(N)n1 (stereo not drawn) [Example 33, 2-Amino-6-methoxymethyl-N-(6-(tetrahydro-pyran-2-ylmethoxy)-benzofuran-2-ylmethyl)-nicotinamide] |  | 12.5 µg/mL (≈ 29.4 µM) | 
15 | C=CCOc1ccc2oc(CNC(=O)c3ccc(COC)nc3N)cc2c1 [Example 54, N-(5-Allyloxy-benzofuran-2-ylmethyl)-2-amino-6-methoxymethyl-nicotinamide] |  | 1.56 µg/mL (≈ 4.25 µM) | 0.39 µg/mL (≈ 1.06 µM)
16 | Nc1ccc(C(=O)NCc2cc3ccc(OCc4cccc(F)c4)cc3o2)c(N)n1 [Example 22, 2,6-Diamino-N-(6-(3-fluoro-benzyloxy)-benzofuran-2-ylmethyl)-nicotinamide] |  | 0.39 µg/mL (≈ 0.96 µM) | 1.56 µg/mL (≈ 3.84 µM)
17 | COCc1ccc(C(=O)NCc2cc3ccc(OCc4ccccc4F)cc3o2)c(N)n1 [Example 42, 2-Amino-N-(6-(2-fluoro-benzyloxy)-benzofuran-2-ylmethyl)-6-methoxymethyl-nicotinamide] |  | 1.56 µg/mL (≈ 3.58 µM) | 3.13 µg/mL (≈ 7.19 µM)
18 | COCCOc1ccc2cc(CNC(=O)c3ccc(COC)nc3N)oc2c1 [Example 40, 2-Amino-N-(6-(2-methoxy-ethoxy)-benzofuran-2-ylmethyl)-6-methoxymethyl-nicotinamide] |  | 3.13 µg/mL (≈ 8.12 µM) | 3.13 µg/mL (≈ 8.12 µM)
19 | C#CCOc1ccc2cc(CNC(=O)c3ccc(COC)nc3N)oc2c1 [Example 39, 2-Amino-6-methoxymethyl-N-(6-prop-2-ynyloxy-benzofuran-2-ylmethyl)-nicotinamide] |  | 1.56 µg/mL (≈ 4.27 µM) | 1.56 µg/mL (≈ 4.27 µM)

Row | Compound | Anti-Candida activity (minimum growth inhibitory concentration, MIC) [1] | MIC [1] | MIC [2]
20 | Nc1ncccc1C(=O)NCc1cc2ccc(OCC3CC3)cc2o1 [Example 72, 2-Amino-N-(6-cyclopropylmethoxy-benzofuran-2-ylmethyl)-nicotinamide] |  | 0.78 µg/mL (≈ 2.31 µM) | 1.56 µg/mL (≈ 4.62 µM)
21 | COCc1ccc(C(=O)NCc2cc3ccc(OCc4cccnc4)cc3o2)c(N)n1 [Example 45, 2-Amino-6-methoxymethyl-N-(6-(pyridin-3-ylmethoxy)-benzofuran-2-ylmethyl)-nicotinamide] |  | 12.5 µg/mL (≈ 29.9 µM) | 12.5 µg/mL (≈ 29.9 µM)
22 | Nc1ccc(C(=O)NCc2cc3cc(OCc4ccccc4)ccc3o2)c(N)n1 [Example 51, 2,6-Diamino-N-(5-benzyloxy-benzofuran-2-ylmethyl)-nicotinamide] |  | 0.2 µg/mL (≈ 0.515 µM) | 0.78 µg/mL (≈ 2.01 µM)
23 | COCc1ccc(C(=O)NCc2cc3ccc(OCc4ccccn4)cc3o2)c(N)n1 [Example 44, 2-Amino-6-methoxymethyl-N-(6-(pyridin-2-ylmethoxy)-benzofuran-2-ylmethyl)-nicotinamide] |  | 0.78 µg/mL (≈ 1.86 µM) | 6.25 µg/mL (≈ 14.9 µM)
24 | COCc1ccc2cc(CNC(=O)c3ccc(COC)nc3N)oc2c1 [Example 47, 2-Amino-6-methoxymethyl-N-(6-methoxymethyl-benzofuran-2-ylmethyl)-nicotinamide] |  | 0.78 µg/mL (≈ 2.19 µM) | 1.56 µg/mL (≈ 4.39 µM)
25 | CCCCOc1ccc2cc(CNC(=O)c3ccc(COC)nc3N)oc2c1 [Example 25, 2-Amino-N-(6-butoxy-benzofuran-2-ylmethyl)-6-methoxymethyl-nicotinamide] |  | 0.78 µg/mL (≈ 2.03 µM) | 
26 | COCc1ccc(C(=O)NCc2cc3ccc(OC)cc3o2)c(N)n1 [Example 24, 2-Amino-N-(6-methoxy-benzofuran-2-ylmethyl)-6-methoxymethyl-nicotinamide] |  | 6.25 µg/mL (≈ 18.3 µM) | 3.13 µg/mL (≈ 9.17 µM)
27 | CC(C)COc1ccc2cc(CNC(=O)c3ccc(N)nc3N)oc2c1 [Example 13, 2,6-Diamino-N-(6-isobutoxy-benzofuran-2-ylmethyl)-nicotinamide] |  | 0.39 µg/mL (≈ 1.1 µM) | 1.56 µg/mL (≈ 4.4 µM)
28 | COCc1ccc(C(=O)NCc2cc3ccc(OCC4CC4)cc3[nH]2)c(N)n1 [Example 73, 2-Amino-N-(6-cyclopropylmethoxy-1H-indol-2-ylmethyl)-6-methoxymethyl-nicotinamide] |  |  | 25 µg/mL (≈ 65.7 µM)
29 | C#CCOc1ccc2cc(CNC(=O)c3cccnc3N)oc2c1 [Example 70, 2-Amino-N-(6-prop-2-ynyloxy-benzofuran-2-ylmethyl)-nicotinamide] |  | 0.78 µg/mL (≈ 2.43 µM) | 1.56 µg/mL (≈ 4.85 µM)
30 | CCC(C)COc1ccc2cc(CNC(=O)c3ccc(COC)nc3N)oc2c1 (stereo not drawn) [Example 29, 2-Amino-6-methoxymethyl-N-(6-(2-methyl-butoxy)-benzofuran-2-ylmethyl)-nicotinamide] |  | 1.56 µg/mL (≈ 3.92 µM) | 6.25 µg/mL (≈ 15.7 µM)
31 | Nc1ccc(C(=O)NCc2cc3ccc(OCc4ccccc4)cc3s2)c(N)n1 [Example 78, 2,6-Diamino-N-(6-benzyloxy-benzo[b]thiohen-2-ylmethyl)-nicotinamide] |  | 0.39 µg/mL (≈ 0.964 µM) | 1.56 µg/mL (≈ 3.86 µM)
32 | Nc1ncccc1C(=O)NCc1cc2ccc(OCc3ccccc3)cc2o1 [Example 58, 2-Amino-N-(6-benzyloxy-benzofuran-2-ylmethyl)-nicotinamide] |  | 0.1 µg/mL (≈ 0.268 µM) | 1.56 µg/mL (≈ 4.18 µM)
33 | CCC(C)COc1ccc2cc(CNC(=O)c3cccnc3N)oc2c1 (stereo not drawn) [Example 65, 2-Amino-N-(6-(2-methyl-butoxy)-benzofuran-2-ylmethyl)-nicotinamide] |  | 1.56 µg/mL (≈ 4.41 µM) | 3.13 µg/mL (≈ 8.86 µM)
34 | CCOCc1ccc2oc(CNC(=O)c3ccc(COC)nc3N)cc2c1 [Example 81, 2-Amino-N-(5-ethoxymethyl-benzofuran-2-ylmethyl)-6-methoxymethyl-nicotinamide] |  |  | 6.25 µg/mL (≈ 16.9 µM)
35 | COCc1ccc(C(=O)NCc2cc3ccc(OCc4ccncc4)cc3o2)c(N)n1 [Example 46, 2-Amino-6-methoxymethyl-N-(6-(pyridin-4-ylmethoxy)-benzofuran-2-ylmethyl)-nicotinamide] |  | 0.39 µg/mL (≈ 0.932 µM) | 
36 | CC(C)=CCOc1ccc2cc(CNC(=O)c3ccc(N)nc3N)oc2c1 [Example 17, 2,6-Diamino-N-(6-(3-methyl-but-2-enyloxy)-benzofuran-2-ylmethyl)-nicotinamide] |  | 0.78 µg/mL (≈ 2.13 µM) | 
37 | CC#CCOc1ccc2cc(CNC(=O)c3ccc(N)nc3N)oc2c1 [Example 8, 2,6-Diamino-N-(6-but-2-ynyloxy-benzofuran-2-ylmethyl)-nicotinamide] |  | 1.56 µg/mL (≈ 4.45 µM) | 
38 | CCCOc1ccc2cc(CNC(=O)c3ccc(COC)nc3N)oc2c1 [Example 37, 2-Amino-6-methoxymethyl-N-(6-propoxy-benzofuran-2-ylmethyl)-nicotinamide] |  | 0.2 µg/mL (≈ 0.541 µM) | 

Reference: patent publication US7829585B2, “Antifungal agent containing pyridine derivative” (Eisai R&D Management Co., Ltd., priority 2005, dated 2010)
